{"source": "patent US20240216342A1", "about": "“BLOOD CARNITINE-INCREASING AGENT” (KOWA COMPANY, LTD., priority 2021, published 2024)", "type_in_all_cases": "in vivo, human", "key": {"[1]": {"assay": "Blood free carnitine after meal (high-fat food) versus before meal, compound A given to dyslipidemia patients for 4 weeks (Example 1)", "protocol": "A study was conducted on an action on blood carnitine in oral administration of the compound A to a dyslipidemia patient at 0.2 to 0.8 mg a day for 4 weeks. For the administration of the compound A, an IR preparation (0.2 mg/day, twice a day), 0.4 mg of a CR preparation (once a day) and 0.8 mg of a CR preparation (once a day) were used, and the administration was performed before or after a meal. Table 2 and FIG. 2 show a process of an amount of change in free carnitine in blood after meal (after intake of high-fat food) with respect to a value before meal in administration of the compound A to the dyslipidemia patient for 4 weeks in Example 1."}, "[2]": {"assay": "Blood free carnitine in a fasting state, compound A given orally to NAFLD patients for 48 weeks versus placebo (Example 2)", "conditions": "IR 0.4 mg/day", "protocol": "A study was conducted on an action on blood carnitine in oral administration of the compound A to a non-alcoholic fatty liver disease (NAFLD) patient at 0.4 mg a day for 48 weeks. For the administration of the compound A, an IR preparation (0.4 mg/day, twice a day) was used, and the administration was performed in a fasting state. A comparison was made with placebo administration. Table 3 and FIG. 3 show a process of a ratio of change in concentration of free carnitine in blood in a fasting state in administration of the compound A (IR 0.4 mg/day) to the NAFLD patient for 48 weeks with respect to the value before administration (at 0 weeks) in Example 2."}, "[3]": {"assay": "Blood free carnitine in a fasting state, compound A given orally to dyslipidemia patients for 4 weeks (Example 1)", "conditions": "for Ratio of change in free carnitine after administration for 4 weeks with respect to value before administration (at 0 weeks): fasting state, oral", "protocol": "A study was conducted on an action on blood carnitine in oral administration of the compound A to a dyslipidemia patient at 0.2 to 0.8 mg a day for 4 weeks. For the administration of the compound A, an IR preparation (0.2 mg/day, twice a day), 0.4 mg of a CR preparation (once a day) and 0.8 mg of a CR preparation (once a day) were used, and the administration was performed before or after a meal. Table 1 and FIG. 1 show a ratio of change in concentration of free carnitine in blood in a fasting state in administration of the compound A to the dyslipidemia patient for 4 weeks with respect to the value before administration (at 0 weeks) in Example 1."}}}
{"smiles": "CC[C@@H](Oc1cccc(CN(CCCOc2ccc(OC)cc2)c2nc3ccccc3o2)c1)C(=O)O", "note": "[Compound A, (R)-2-[3-[[N-(benzoxazol-2-yl)-N-3-(4-methoxyphenoxy)propyl]aminomethyl]phenoxy]butyric acid]", "values": [{"measurement": "Effect on concentration of free carnitine in blood after meal compared to before meal (in words)", "setting": "[1]; 0.2 to 0.8 mg a day, 4 weeks", "value": "increased the concentration of free carnitine in blood after meal as compared to the concentration before meal"}, {"measurement": "Amount of change in free carnitine in blood after meal with respect to value before meal, average", "setting": "[1]; CR 0.4 mg/day (QD) for 4 weeks, 1 h after high-fat meal", "value": 2.78, "unit": "µmol/L"}, {"measurement": "Amount of change in free carnitine in blood after meal with respect to value before meal, average", "setting": "[1]; CR 0.4 mg/day (QD) for 4 weeks, 2.5 h after high-fat meal", "value": 2.65, "unit": "µmol/L"}, {"measurement": "Amount of change in free carnitine in blood after meal with respect to value before meal, average", "setting": "[1]; CR 0.4 mg/day (QD) for 4 weeks, 4.5 h after high-fat meal", "value": 2.25, "unit": "µmol/L"}, {"measurement": "Amount of change in free carnitine in blood after meal with respect to value before meal, average", "setting": "[1]; CR 0.8 mg/day (QD) for 4 weeks, 1 h after high-fat meal", "value": 3.11, "unit": "µmol/L"}, {"measurement": "Amount of change in free carnitine in blood after meal with respect to value before meal, average", "setting": "[1]; CR 0.8 mg/day (QD) for 4 weeks, 2.5 h after high-fat meal", "value": 3.26, "unit": "µmol/L"}, {"measurement": "Amount of change in free carnitine in blood after meal with respect to value before meal, average", "setting": "[1]; CR 0.8 mg/day (QD) for 4 weeks, 4.5 h after high-fat meal", "value": 2.92, "unit": "µmol/L"}, {"measurement": "Amount of change in free carnitine in blood after meal with respect to value before meal, average", "setting": "[1]; IR 0.2 mg/day (BID) for 4 weeks, 1 h after high-fat meal", "value": 2.72, "unit": "µmol/L"}, {"measurement": "Amount of change in free carnitine in blood after meal with respect to value before meal, average", "setting": "[1]; IR 0.2 mg/day (BID) for 4 weeks, 2.5 h after high-fat meal", "value": 2.19, "unit": "µmol/L"}, {"measurement": "Amount of change in free carnitine in blood after meal with respect to value before meal, average", "setting": "[1]; IR 0.2 mg/day (BID) for 4 weeks, 4.5 h after high-fat meal", "value": 1.79, "unit": "µmol/L"}, {"measurement": "Time of administration at which the free carnitine increasing action reached the maximum value", "setting": "[2]", "value": 12, "unit": "weeks"}, {"measurement": "Ratio of change in concentration of free carnitine in blood in a fasting state with respect to value before administration (0 weeks), average", "setting": "[2]; 4 weeks", "value": 20.0}, {"measurement": "Ratio of change in concentration of free carnitine in blood in a fasting state with respect to value before administration (0 weeks), average", "setting": "[2]; 12 weeks", "value": 24.7}, {"measurement": "Ratio of change in concentration of free carnitine in blood in a fasting state with respect to value before administration (0 weeks), average", "setting": "[2]; 24 weeks", "value": 24.5}, {"measurement": "Effect on concentration of free carnitine in blood in a fasting state compared to placebo (in words)", "setting": "[2]; 48 weeks", "value": "increased the concentration of free carnitine in blood in a fasting state as compared to placebo administration"}, {"measurement": "Ratio of change in concentration of free carnitine in blood in a fasting state with respect to value before administration (0 weeks), average", "setting": "[2]; 48 weeks", "value": 20.9}, {"measurement": "Effect on concentration of free carnitine in blood in a fasting state (in words)", "setting": "[3]; 0.2 to 0.8 mg a day", "value": "increased the concentration of free carnitine in blood in a dose-dependent manner"}, {"measurement": "Ratio of change in free carnitine after administration for 4 weeks with respect to value before administration (at 0 weeks)", "setting": "[3]; CR preparation 0.4 mg/day", "value": 19.5}, {"measurement": "Ratio of change in free carnitine after administration for 4 weeks with respect to value before administration (at 0 weeks)", "setting": "[3]; CR preparation 0.8 mg/day", "value": 23.71}, {"measurement": "Ratio of change in free carnitine after administration for 4 weeks with respect to value before administration (at 0 weeks)", "setting": "[3]; IR preparation 0.2 mg/day", "value": 11.82}]}
